The test system of data set [1] is Mtb. Nature of the data set: microbe, parasite or virus in culture. The format is cell-based, Mycobacterium tuberculosis. Particulars: Mycobacterium tuberculosis, read-out: MIC (I).
Data set [2] deals with Mtb. Briefly: microbe, parasite or virus in culture. Type of data set: cell-based, Mycobacterium tuberculosis. The settings on record: Mycobacterium tuberculosis, read-out: MIC (III).
Data set [3] is described as follows: in vitro. The settings on record: African green monkey.

Converted amounts (≈) assume the structure as drawn. Read-outs that look alike come from different tables or passages of the source.

`CCOC(=O)NC(=O)c1ccsc1NC(=O)c1ccc2sc(N3CCN(C)CC3)nc2c1` [Compound 59]: the MIC was less than 1 µg/mL in data set [1] and 5 to 25 µg/mL (≈ 10.6 to 52.8 µM) in data set [2]. Besides, the CC50 in data set [3] is greater than 50 µg/mL.
The matching figures for `CCOC(=O)NC(=O)c1ccsc1NC(=O)c1cc(C)nc2ccccc12` [Compound 122]: greater than 3 µg/mL, greater than 25 µg/mL and greater than 50 µg/mL.
Take `CCOC(=O)NC(=O)c1ccsc1NC(=O)c1cc2c(F)cccc2s1` [Compound 331]: the MIC in data set [1] was less than 1 µg/mL; in data set [2], 5 to 25 µg/mL (≈ 12.7 to 63.7 µM). Also, in data set [3], the CC50 was less than 25 µg/mL.
The matching figures for `CC(C)COC(=O)NC(=O)c1ccsc1NC(=O)c1nc2cnccc2s1` [Compound 282]: greater than 3 µg/mL, greater than 25 µg/mL and 25 to 50 µg/mL (≈ 61.8 to 124 µM).
On the same counts, the results for `CCOC(=O)NC(=O)c1ccsc1NC(=O)c1nc2c(N3CCOCC3)nccc2s1` [Compound 248] are less than 1 µg/mL, greater than 25 µg/mL and greater than 50 µg/mL.
On the same counts, the results for `CCOC(=O)NC(=O)c1ccsc1NC(=O)c1cc(OC)c2ccccc2n1` [Compound 114] are greater than 3 µg/mL, greater than 25 µg/mL and greater than 50 µg/mL.
On to `CCC(CC)OC(=O)NC(=O)c1ccsc1NC(=O)c1nc2cnccc2s1` [Compound 328], for which the results for the MIC in data set [1] and in data set [2] were less than 1 µg/mL and greater than 25 µg/mL, respectively. Further, the CC50 in data set [3] was less than 25 µg/mL.
On the same counts, the results for `CCOC(=O)NC(=O)c1cc(C)sc1NC(=O)c1ccc2scnc2c1` [Compound 62] are 1 to 3 µg/mL (≈ 2.57 to 7.7 µM), greater than 25 µg/mL and 25 to 50 µg/mL (≈ 64.2 to 128 µM).
Turning to `CC(=O)N1CCC(OC(=O)NC(=O)c2ccsc2NC(=O)c2cn3ccccc3n2)CC1` [Compound 375], the figures for the MIC in data set [1] and in data set [2] were greater than 3 µg/mL and greater than 25 µg/mL, respectively. This compound gave a CC50 in data set [3] of 25 to 50 µg/mL (≈ 54.9 to 110 µM).
For the compound `CCOC(=O)NC(=O)c1ccsc1NC(=O)c1nn(-c2ccccc2)nc1C` [Compound 138], the MIC in data set [1] is greater than 3 µg/mL; in data set [2], greater than 25 µg/mL. In data set [3], this compound displayed a CC50 greater than 50 µg/mL.
The matching figures for `CCOC(=O)NC(=O)c1ccsc1NC(=O)c1nc2c(N3CCN(C)CC3)nccc2s1` [Compound 262]: 1 to 3 µg/mL (≈ 2.11 to 6.32 µM), 5 to 25 µg/mL (≈ 10.5 to 52.7 µM) and 25 to 50 µg/mL (≈ 52.7 to 105 µM).
In the case of `CC(C)OC(=O)NC(=O)c1cc(F)sc1NC(=O)c1nc2ncccc2s1` [Compound 391], the MIC is less than 1 µg/mL in data set [1] and greater than 25 µg/mL in data set [2]. Moreover, the CC50 in data set [3] is less than 25 µg/mL.
On the same counts, the results for `CCOC(=O)NC(=O)c1ccsc1NC(=O)c1cn2c(n1)CCCC2` [Compound 309] are 1 to 3 µg/mL (≈ 2.76 to 8.28 µM), 5 to 25 µg/mL (≈ 13.8 to 69 µM) and less than 25 µg/mL.
On the same counts, the results for `CCOC(=O)NC(=O)c1ccsc1NC(=O)c1cc(NC(=O)C(C)(C)C)ncn1` [Compound 36] are 1 to 3 µg/mL (≈ 2.38 to 7.15 µM), greater than 25 µg/mL and greater than 50 µg/mL.
On the same counts, the results for `O=C(NC(=O)c1ccsc1NC(=O)c1nc2ccccc2s1)OCCF` [Compound 37] are less than 1 µg/mL, greater than 25 µg/mL and greater than 50 µg/mL.
Take `CCOC(=O)NC(=O)c1ccsc1NC(=O)c1sc(-c2ccncc2)nc1C` [Compound 135]: the MIC is greater than 3 µg/mL in data set [1] and greater than 25 µg/mL in data set [2]. Further, the CC50 in data set [3] was greater than 50 µg/mL.
On the same counts, the results for `O=C(NC(=O)c1ccsc1NC(=O)c1nc2ccccc2s1)OC1COC1` [Compound 35] are less than 1 µg/mL, greater than 25 µg/mL and less than 25 µg/mL.
The matching figures for `O=C(NC(=O)c1ccsc1NC(=O)c1nc2ccccc2s1)OC1CCC1` [Compound 321]: less than 1 µg/mL, greater than 25 µg/mL and greater than 50 µg/mL.
The matching figures for `Cc1cc(COC(=O)NC(=O)c2ccsc2NC(=O)c2nc3cnccc3s2)ccn1` [Compound 280]: greater than 3 µg/mL, greater than 25 µg/mL and 25 to 50 µg/mL (≈ 55.1 to 110 µM).
With `CCOC(=O)NC(=O)c1ccsc1NC(=O)c1nc2c(s1)CCN(c1ccccc1)C2` [Compound 97], the MIC in data set [1] is less than 1 µg/mL; in data set [2], greater than 25 µg/mL. This compound gave a CC50 in data set [3] greater than 50 µg/mL.
The matching figures for `CCOC(=O)NC(=O)c1ccsc1NC(=O)c1nc2cnc(Cl)cc2s1` [Compound 267]: less than 1 µg/mL, greater than 25 µg/mL and greater than 50 µg/mL.
The matching figures for `CCOC(=O)NC(=O)c1ccsc1NC(=O)c1cc2nc(C)cc(C)n2n1` [Compound 121]: greater than 3 µg/mL, greater than 25 µg/mL and greater than 50 µg/mL.
The matching figures for `CCOC(=O)NC(=O)c1ccsc1NC(=O)c1nc2c(s1)CNCC2` [Compound 84]: 1 to 3 µg/mL (≈ 2.63 to 7.89 µM), greater than 25 µg/mL and greater than 50 µg/mL.
Turning to `CCOC(=O)NC(=O)c1ccsc1NC(=O)c1cnc2ccccc2c1` [Compound 264], the MIC in data set [1] is less than 1 µg/mL; in data set [2], 5 to 25 µg/mL (≈ 13.5 to 67.7 µM). The same compound displayed a CC50 in data set [3] of less than 25 µg/mL.
The matching figures for `CC(CN1CCOCC1)OC(=O)NC(=O)c1ccsc1NC(=O)c1nc2ccccc2s1` (stereo not drawn) [Compound 34]: greater than 3 µg/mL, 5 to 25 µg/mL (≈ 10.5 to 52.7 µM) and less than 25 µg/mL.
On the same counts, the results for `CN(C)C(=O)NC(=O)c1ccsc1NC(=O)c1nc2cnccc2s1` [Compound 384] are greater than 3 µg/mL, greater than 25 µg/mL and less than 25 µg/mL.
On the same counts, the results for `O=C(NC(=O)c1ccsc1NC(=O)c1cn2ccccc2n1)OCCOCc1ccccc1` [Compound 374] are less than 1 µg/mL, greater than 25 µg/mL and 25 to 50 µg/mL (≈ 53.8 to 108 µM).
Turning to `O=C(NC(=O)c1ccsc1NC(=O)c1nc2ccccc2s1)OCCOCc1ccccc1` [Compound 371], the MIC was less than 1 µg/mL in data set [1] and 5 to 25 µg/mL (≈ 10.4 to 51.9 µM) in data set [2]. Further, the CC50 in data set [3] was less than 25 µg/mL.
The matching figures for `CCOC(=O)NC(=O)c1ccsc1NC(=O)c1nc2cnc(N3CCOCC3)cc2s1` [Compound 311]: less than 1 µg/mL, greater than 25 µg/mL and greater than 50 µg/mL.
The matching figures for `CCOC(=O)NC(=O)c1ccsc1NC(=O)c1nc(-c2ccccc2)oc1C` [Compound 130]: greater than 3 µg/mL, greater than 25 µg/mL and greater than 50 µg/mL.
As to `CC(C)OC(=O)NC(=O)c1ccsc1NC(=O)c1cc2ccccn2n1` [Compound 352], the MIC in data set [1] is less than 1 µg/mL; in data set [2], greater than 25 µg/mL. This compound also displayed a CC50 in data set [3] of 25 to 50 µg/mL (≈ 67.1 to 134 µM).
In the case of `CCOC(=O)NC(=O)c1ccsc1NC(=O)c1ccc2nccnc2c1` [Compound 398], the results for the MIC in data set [1] and in data set [2] were less than 1 µg/mL and 5 to 25 µg/mL (≈ 13.5 to 67.5 µM), respectively. The compound further gave a CC50 in data set [3] of less than 25 µg/mL.
The matching figures for `CCOC(=O)NC(=O)c1ccsc1NC(=O)c1cccc2cccnc12` [Compound 112]: greater than 3 µg/mL, greater than 25 µg/mL and greater than 50 µg/mL.
On the same counts, the results for `CCOC(=O)NC(=O)c1cc(F)sc1NC(=O)c1nc2cccnc2s1` [Compound 318] are less than 1 µg/mL, greater than 25 µg/mL and 25 to 50 µg/mL (≈ 63.4 to 127 µM).
The matching figures for `CCOC(=O)NC(=O)c1ccsc1NC(=O)c1ccc2nccn2n1` [Compound 77]: 1 to 3 µg/mL (≈ 2.78 to 8.35 µM), greater than 25 µg/mL and greater than 50 µg/mL.
In the case of `CCOC(=O)NC(=O)c1ccsc1NC(=O)c1ccc2c(c1)CCCC2` [Compound 119], the MIC in data set [1] was greater than 3 µg/mL; in data set [2], greater than 25 µg/mL. The same compound had a CC50 in data set [3] greater than 50 µg/mL.
Consider `CCOC(=O)NC(=O)c1cc(CC(=O)OC)sc1NC(=O)c1nc2cnccc2s1` [Compound 276], for which the MIC in data set [1] is greater than 3 µg/mL; in data set [2], greater than 25 µg/mL. Further, the CC50 in data set [3] was 25 to 50 µg/mL (≈ 55.7 to 111 µM).
On the same counts, the results for `COC(=O)NC(=O)c1ccsc1NC(=O)c1nc2cnccc2s1` [Compound 314] are greater than 3 µg/mL, greater than 25 µg/mL and 25 to 50 µg/mL (≈ 69 to 138 µM).
The matching figures for `CCOC(=O)NC(=O)c1cc(F)sc1NC(=O)c1cn2ccccc2n1` [Compound 338]: less than 1 µg/mL, greater than 25 µg/mL and 25 to 50 µg/mL (≈ 66.4 to 133 µM).
The matching figures for `CCOC(=O)NC(=O)c1ccsc1NC(=O)c1ccc2ncccc2c1` [Compound 89]: 1 to 3 µg/mL (≈ 2.71 to 8.12 µM), 5 to 25 µg/mL (≈ 13.5 to 67.7 µM) and greater than 50 µg/mL.
As for `O=C(NC(=O)c1ccsc1NC(=O)c1nc2cnccc2s1)OCc1ccccc1` [Compound 101], the results for the MIC in data set [1] and in data set [2] were less than 1 µg/mL and 5 to 25 µg/mL (≈ 11.4 to 57 µM), respectively. In addition, the CC50 in data set [3] was greater than 50 µg/mL.
The matching figures for `CCOC(=O)NC(=O)c1ccsc1NC(=O)c1cc2ccc(Cl)cc2s1` [Compound 333]: less than 1 µg/mL, 5 to 25 µg/mL (≈ 12.2 to 61.1 µM) and 25 to 50 µg/mL (≈ 61.1 to 122 µM).
As for `CCC(CC)OC(=O)NC(=O)c1ccsc1NC(=O)c1cnc2ccnn2c1` [Compound 327], the MIC in data set [1] is 1 to 3 µg/mL (≈ 2.49 to 7.47 µM); in data set [2], greater than 25 µg/mL. The compound also displayed a CC50 in data set [3] of less than 25 µg/mL.
Turning to `CC(C)OC(=O)NC(=O)c1ccsc1NC(=O)c1nc2ccccc2o1` [Compound 397], the MIC in data set [1] is less than 1 µg/mL; in data set [2], greater than 25 µg/mL. The same compound had a CC50 in data set [3] of less than 25 µg/mL.
On the same counts, the results for `O=C(NC(=O)c1ccsc1NC(=O)c1cnc2ccnn2c1)OCc1ccccc1F` [Compound 285] are greater than 3 µg/mL, greater than 25 µg/mL and less than 25 µg/mL.
On the same counts, the results for `CCC(OC(=O)NC(=O)c1ccsc1NC(=O)c1nc2ccccc2s1)c1ccccc1` (stereo not drawn) [Compound 307] are greater than 3 µg/mL, 5 to 25 µg/mL (≈ 10.7 to 53.7 µM) and less than 25 µg/mL.
The matching figures for `CC(=O)N1CCC(OC(=O)NC(=O)c2ccsc2NC(=O)c2cnc3ccnn3c2)CC1` [Compound 368]: greater than 3 µg/mL, greater than 25 µg/mL and 25 to 50 µg/mL (≈ 54.8 to 110 µM).
For the compound `CCOC(=O)NC(=O)c1ccsc1NC(=O)c1ccnc(NC(=O)N2CCCCC2)c1` [Compound 51], the results for the MIC in data set [1] and in data set [2] were less than 1 µg/mL and greater than 25 µg/mL, respectively. This compound also gave a CC50 in data set [3] of 25 to 50 µg/mL (≈ 56.1 to 112 µM).
On the same counts, the results for `CCOC(=O)NC(=O)c1cc(F)sc1NC(=O)c1ccn2nccc2c1` [Compound 343] are less than 1 µg/mL, greater than 25 µg/mL and less than 25 µg/mL.

(Values after patent publication US20160194299A1 (priority 2013, published 2016).)
